Assays:
[1] = biological target: T1, Proteasome subunit beta type-9 (Homo sapiens, UniProt P28065); assay: Inhibition of proteasome subunit beta-1i in human Raji cells using BODIPY- epoxomicin by fluorescent densitometry; assay type: cell-based
T1 sequence (P28065 whole entry): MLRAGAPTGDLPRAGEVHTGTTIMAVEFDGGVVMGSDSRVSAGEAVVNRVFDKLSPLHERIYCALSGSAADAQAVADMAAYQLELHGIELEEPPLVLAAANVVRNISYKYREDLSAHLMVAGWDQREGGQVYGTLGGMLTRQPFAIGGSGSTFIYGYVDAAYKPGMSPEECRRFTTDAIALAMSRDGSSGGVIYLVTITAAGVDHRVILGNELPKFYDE

[2] = Inhibition of 20s proteasome subunit beta-1c in human Raji cells using BODIPY- epoxomicin by fluorescent densitometry; assay type: cell-based
[3] = biological target: T2, Proteasome subunit beta type-10 (Homo sapiens, UniProt P40306); assay: Inhibition of proteasome subunit beta-2i in human Raji cells using BODIPY- epoxomicin by fluorescent densitometry; assay type: cell-based
T2 sequence (P40306 whole entry): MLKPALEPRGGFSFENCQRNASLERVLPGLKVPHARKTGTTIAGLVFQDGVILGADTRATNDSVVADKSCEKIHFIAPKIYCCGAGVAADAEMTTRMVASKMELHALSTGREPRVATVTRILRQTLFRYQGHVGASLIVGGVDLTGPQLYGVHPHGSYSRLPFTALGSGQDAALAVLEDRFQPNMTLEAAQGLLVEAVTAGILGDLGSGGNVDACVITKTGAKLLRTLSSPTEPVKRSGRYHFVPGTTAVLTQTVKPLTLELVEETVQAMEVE

[4] = tested on: Raji; assay: Ratio of IC50 for 20s proteasome subunit beta-1c to IC50 for proteasome subunit beta-1i in human Raji cells; assay type: cell-based
[5] = biological target: T3, Proteasome subunit beta type-8 (Homo sapiens, UniProt P28062); assay: Inhibition of proteasome subunit beta-5i in human Raji cells using BODIPY-NC005 by fluorescent densitometry; assay type: cell-based
T3 sequence (P28062 whole entry): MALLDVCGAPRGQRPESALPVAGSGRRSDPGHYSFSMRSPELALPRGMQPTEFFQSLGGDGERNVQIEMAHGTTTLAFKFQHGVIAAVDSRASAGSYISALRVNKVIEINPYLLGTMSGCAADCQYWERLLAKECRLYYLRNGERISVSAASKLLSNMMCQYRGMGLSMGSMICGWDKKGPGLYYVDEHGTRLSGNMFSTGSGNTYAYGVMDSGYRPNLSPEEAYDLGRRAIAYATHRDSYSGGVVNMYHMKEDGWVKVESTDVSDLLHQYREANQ

[6] = Inhibition of 20s proteasome subunit beta-5c in human Raji cells using BODIPY-NC005 by fluorescent densitometry; assay type: cell-based
[7] = Inhibition of 20s proteasome subunit beta-2c in human Raji cells using BODIPY- epoxomicin by fluorescent densitometry; assay type: cell-based
[8] = biological target: T3, Proteasome subunit beta type-8; assay: Inhibition of proteasome subunit beta-5i in human RPMI8226 cells using BODIPY-NC005 by fluorescent densitometry; assay type: cell-based, RPMI-8226
[9] = Inhibition of 20s proteasome subunit beta-5c in human RPMI8226 cells using BODIPY-NC005 by fluorescent densitometry; assay type: cell-based; details: rpmi-8226
[10] = biological target: T1, Proteasome subunit beta type-9; assay: Inhibition of proteasome subunit beta-1i in human RPMI8226 cells using BODIPY-NC001 by fluorescent densitometry; assay type: cell-based, RPMI-8226
[11] = Inhibition of 20s proteasome subunit beta-1c in human RPMI8226 cells using BODIPY-NC001 by fluorescent densitometry; assay type: cell-based; details: rpmi-8226
[12] = biological target: T2, Proteasome subunit beta type-10; assay: Inhibition of proteasome subunit beta-2i in human RPMI8226 cells using BODIPY-epoxomicin by fluorescent densitometry; assay type: cell-based, RPMI-8226
[13] = Inhibition of 20s proteasome subunit beta-2c in human RPMI8226 cells using BODIPY-epoxomicin by fluorescent densitometry; assay type: cell-based; details: rpmi-8226
[14] = Inhibition of proteasome subunit beta-5c/i in human RPMI8226 cells by fluorescent densitometry; assay type: cell-based; details: rpmi-8226
[15] = Inhibition of proteasome subunit beta-2c/i in human RPMI8226 cells by fluorescent densitometry; assay type: cell-based; details: rpmi-8226
[16] = tested on: RPMI-8226; assay: Ratio of IC50 for 20s proteasome subunit beta-1c to IC50 for proteasome subunit beta-1i in human RPMI8226 cells; assay type: cell-based
[17] = tested on: RPMI-8226; assay: Ratio of IC50 for proteasome subunit beta-1i to IC50 for proteasome subunit beta-5c/I in human RPMI8226 cells; assay type: cell-based

Row | Structure (SMILES) | IC50 [1] [µM] | IC50 [2] [µM] | IC50 [3] [µM] | Ratio IC50 [4] | IC50 [5] [µM] | IC50 [6] [µM] | IC50 [7] [µM] | IC50 [8] [µM] | IC50 [9] [µM] | IC50 [10] [µM] | IC50 [11] [µM] | IC50 [12] [µM] | IC50 [13] [µM] | IC50 [14] [µM] | IC50 [15] [µM] | Ratio IC50 [16] | Ratio IC50 [17]
1 | CCCC[C@H](NC(=O)[C@@H]1CCCN1C(=O)[C@H](C)NC(=O)CN=[N+]=[N-])C(=O)N[C@@H](CC1CCCCC1)C(=O)[C@@]1(C)CO1 | 0.087 | 3.4 | > 30 | 39 |  |  |  |  |  |  |  |  |  |  |  |  | 
2 | CCCC[C@H](NC(=O)[C@@H]1C[C@H](F)CN1C(=O)[C@H](C)NC(=O)CN=[N+]=[N-])C(=O)N[C@@H](CC(C)C)C(=O)[C@@]1(C)CO1 | 0.22 | 0.51 |  | 2.3 |  |  |  |  |  |  |  |  |  |  |  |  | 
3 | CC1=C(C(=O)N[C@H](C)C(=O)N[C@@H](Cc2c[nH]c3ccccc23)C(=O)N[C@@H](CC2CCCCC2)C(=O)[C@@]2(C)CO2)Cc2ccccc21 | 7.1 | > 10 | > 10 |  | 0.0083 | 4.6 | > 10 | 0.23 | > 100 | 16 | > 100 | > 100 | > 100 |  |  |  | 
4 | CCCC[C@H](NC(=O)[C@@H]1CCCCN1C(=O)[C@H](C)NC(=O)CN=[N+]=[N-])C(=O)N[C@@H](CC(C)C)C(=O)[C@@]1(C)CO1 | 0.067 | 0.25 |  | 3.7 |  |  |  |  |  |  |  |  |  |  |  |  | 
5 | CCCC[C@H](NC(=O)[C@@H]1CCCN1C(=O)[C@H](C)NC(=O)CN=[N+]=[N-])C(=O)N[C@@H](CC(C)C)C(=O)[C@@]1(C)CO1 | 0.045 | 0.088 |  | 2 |  |  |  |  |  | 0.14 | 0.37 |  |  | > 10 | > 10 | 3 | > 70
6 | C[C@@H](NC(=O)CN1CCOCC1)C(=O)N[C@@H](Cc1c[nH]c2ccccc12)C(=O)N[C@@H](CC1CCCCC1)C(=O)[C@@]1(C)CO1 | > 10 | > 10 | > 10 |  | 0.032 | 0.827 | > 10 | 0.059 | 2.9 | 6.2 | > 10 | > 10 | > 10 |  |  |  | 
7 | CCCC[C@H](NC(=O)[C@@H]1C[C@@H](O)CN1C(=O)[C@H](C)NC(=O)CN=[N+]=[N-])C(=O)N[C@@H](CC(C)C)C(=O)[C@@]1(C)CO1 | 0.17 | 0.86 |  | 5 |  |  |  |  |  |  |  |  |  |  |  |  | 
8 | COc1ccc(C[C@H](NC(=O)[C@H](C)NC(=O)CN2CCOCC2)C(=O)N[C@@H](Cc2ccccc2)C(=O)[C@@]2(C)CO2)cc1 |  | > 10 |  |  |  | 0.054 | 1.1 |  | 0.18 |  | > 5 |  | 1.1 |  |  |  | 
9 | COc1ccc(C[C@H](NC(=O)[C@@H](C)NC(=O)C2=C(C)c3ccccc3C2)C(=O)N[C@@H](CC2CCCCC2)C(=O)[C@@]2(C)CO2)cc1 | > 10 | > 10 | > 10 |  | 0.011 | 5.5 | > 10 | 0.37 | > 100 | > 100 | > 100 | > 100 | > 100 |  |  |  | 
10 | CCCC[C@H](NC(=O)[C@@H]1CC(F)(F)CN1C(=O)[C@H](C)NC(=O)CN=[N+]=[N-])C(=O)N[C@@H](CC(C)C)C(=O)[C@@]1(C)CO1 | 0.034 | 0.36 |  | 10.5 |  |  |  |  |  |  |  |  |  |  |  |  | 
11 | CC1=C(C(=O)N[C@H](C)C(=O)N[C@@H](Cc2c[nH]c3ccccc23)C(=O)N[C@@H](Cc2ccccc2)C(=O)[C@@]2(C)CO2)Cc2ccccc21 | 1.84 | > 10 | > 10 |  | 0.0025 | 0.227 | > 10 | 0.025 | 2.9 | 3.5 | > 100 | > 100 | > 100 |  |  |  | 
12 | CC1=C(C(=O)N[C@H](C)C(=O)N[C@@H](Cc2c[nH]c3ccccc23)C(=O)N[C@H](/C=C/S(C)(=O)=O)Cc2ccccc2)Cc2ccccc21 | > 100 | > 100 | > 100 |  | 0.053 | 25 | > 100 | 0.39 | > 100 | > 100 | > 100 | > 100 | > 100 |  |  |  | 
13 | CCCC[C@H](NC(=O)[C@@H]1CC(F)(F)CN1C(=O)[C@H](C)NC(=O)CN=[N+]=[N-])C(=O)N[C@@H](CC1CCCCC1)C(=O)[C@@]1(C)CO1 | 0.095 | 24 | > 100 | 252 |  |  |  |  |  | 0.13 | 47 |  |  | 65 | > 100 | 360 | 500
14 | CCCC[C@H](NC(=O)[C@@H]1C[C@@H](F)CN1C(=O)[C@H](C)NC(=O)CN=[N+]=[N-])C(=O)N[C@@H](CC(C)C)C(=O)[C@@]1(C)CO1 | 0.022 | 0.066 |  | 3 |  |  |  |  |  |  |  |  |  |  |  |  | 
15 | CCCCCCC(=O)N[C@@H](C)C(=O)N[C@@H](CC(C)C)C(=O)[C@@]1(CO[Si](C)(C)C(C)(C)C)CO1 | 0.104 | 15 | 25 | 144 |  |  |  |  |  |  |  |  |  |  |  |  | 
16 | CCCC[C@H](NC(=O)[C@@H]1CCN1C(=O)[C@H](C)NC(=O)CN=[N+]=[N-])C(=O)N[C@@H](CC(C)C)C(=O)[C@@]1(C)CO1 | 0.096 | 0.054 |  | 0.6 |  |  |  |  |  |  |  |  |  |  |  |  | 
17 | CCCC[C@H](NC(=O)[C@@H]1CSCN1C(=O)[C@H](C)NC(=O)CN=[N+]=[N-])C(=O)N[C@@H](CC(C)C)C(=O)[C@@]1(C)CO1 | 0.068 | 0.24 |  | 6.5 |  |  |  |  |  |  |  |  |  |  |  |  | 
18 | COc1ccc(C[C@H](NC(=O)[C@H](C)NC(=O)CN2CCOCC2)C(=O)N[C@@H](CC2CCCCC2)C(=O)[C@@]2(C)CO2)cc1 | 0.3 |  |  |  | 0.0066 |  |  | 0.044 |  | 0.37 |  |  |  |  |  |  | 
19 | CCCC[C@H](NC(=O)[C@@H]1CCCN1C(=O)[C@H](C)NC(=O)CN=[N+]=[N-])C(=O)N[C@@H](Cc1ccccc1)C(=O)[C@@]1(C)CO1 | 0.066 | 0.58 | > 100 | 9 |  |  |  |  |  |  |  |  |  |  |  |  | 
20 | CCCC[C@H](NC(=O)[C@@H]1CC(F)(F)CN1C(=O)[C@H](C)NC(=O)CN=[N+]=[N-])C(=O)N[C@@H](Cc1ccccc1)C(=O)[C@@]1(C)CO1 | 0.042 | 4.8 | > 100 | 114 |  |  |  |  |  |  |  |  |  |  |  |  | 
21 | COc1ccc(C[C@H](NC(=O)[C@@H](C)NC(=O)CN2CCOCC2)C(=O)N[C@@H](CC2CCCCC2)C(=O)[C@@]2(C)CO2)cc1 | > 10 |  |  |  | 0.036 |  |  | 0.1 |  | 7.3 |  |  |  |  |  |  | 

From ChEMBL document CHEMBL3351747, “Structure-based design of β1i or β5i specific inhibitors of human immunoproteasomes” (J Med Chem, 2014)
